Measured values from patent US12421210B2, “Fused bicyclic heterocycles as therapeutic agents” (NEW YORK UNIVERSITY, priority 2018, dated 2025).

Target: human NAMPT enzyme (His-hNAMPT) (Homo sapiens (Human), UniProt P43490)
Assay: NAMPT enzymatic inhibition assay (fluorescence, NADH product)
Assay type: biochemical
Conditions: [BPS]; read-out: NAMPT IC50 (μM) [BPS]

Chain of human NAMPT enzyme (His-hNAMPT) (P43490 whole entry): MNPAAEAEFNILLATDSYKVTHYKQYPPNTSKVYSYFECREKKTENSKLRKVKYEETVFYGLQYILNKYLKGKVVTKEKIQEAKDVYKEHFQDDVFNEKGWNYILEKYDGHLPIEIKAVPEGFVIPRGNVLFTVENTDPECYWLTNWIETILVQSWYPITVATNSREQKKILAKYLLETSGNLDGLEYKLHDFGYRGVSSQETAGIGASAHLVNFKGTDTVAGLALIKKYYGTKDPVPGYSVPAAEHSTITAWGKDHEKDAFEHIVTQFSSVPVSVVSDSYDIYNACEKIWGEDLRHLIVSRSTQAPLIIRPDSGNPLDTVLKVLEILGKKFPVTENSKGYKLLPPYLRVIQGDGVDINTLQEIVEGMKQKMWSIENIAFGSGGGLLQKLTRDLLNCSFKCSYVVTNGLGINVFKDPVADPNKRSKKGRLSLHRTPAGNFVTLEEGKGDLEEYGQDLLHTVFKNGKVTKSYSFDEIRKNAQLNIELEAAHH

| IC50 [µM] | SMILES |
| --- | --- |
| 0.01 to 0.49 | Nc1ccc(/C=C/C(=O)NCC[C@@H]2[C@H]3CN(c4ncccn4)C[C@@H]23)cn1 [Example 189, (E)-3-(6-aminopyridin-3-yl)-N-(2-((1R,5S,6s)-3-(pyrimidin-2-yl)-3-azabicyclo[3.1.0]hexan-6-yl)ethyl)acrylamide] |
| 0.01 to 0.49 | Nc1ccc(/C=C/C(=O)NCC[C@@H]2[C@H]3CN(c4nc5ccccc5s4)C[C@@H]23)cn1 [Example 190, (E)-3-(6-aminopyridin-3-yl)-N-(2-((1R,5S,6s)-3-(benzo[d]thiazol-2-yl)-3-azabicyclo[3.1.0]hexan-6-yl)ethyl)acrylamide] |
| 0.01 to 0.49 | Nc1ccc(/C=C/C(=O)NCC[C@@H]2[C@H]3CN(c4cccc5ccccc45)C[C@@H]23)cn1 [Example 191, (E)-3-(6-aminopyridin-3-yl)-N-(2-((1R,5S,6s)-3-(naphthalen-1-yl)-3-azabicyclo[3.1.0]hexan-6-yl)ethyl)acrylamide] |
| 0.01 to 0.49 | Nc1ccc(/C=C/C(=O)NCC[C@@H]2[C@H]3CN(c4ccccc4)C[C@@H]23)cn1 [Example 192, (E)-3-(6-aminopyridin-3-yl)-N-(2-((1R,5S,6s)-3-phenyl-3-azabicyclo[3.1.0]hexan-6-yl)ethyl)acrylamide] |

Same assay, conditions: [HDB]; read-out: NAMPT IC50 (μM) [HDB]

| SMILES | IC50 [µM] |
| --- | --- |
| O=C(/C=C/c1cccnc1)NCC[C@@H]1[C@H]2CN(c3ncc(F)c(Cl)n3)C[C@@H]12 [Example 188, (E)-N-(2-((1R,5S,6s)-3-(4-chloro-5-fluoropyrimidin-2-yl)-3-azabicyclo[3.1.0]hexan-6-yl)ethyl)-3-(pyridin-3-yl)acrylamide] | < 0.01 |
| O=C(/C=C/c1cccnc1)NCC[C@@H]1[C@H]2CN(c3ccc(F)cc3)C[C@@H]12 [Example 195, (E)-N-(2-((1R,5S,6s)-3-(4-fluorophenyl)-3-azabicyclo[3.1.0]hexan-6-yl)ethyl)-3-(pyridin-3-yl)acrylamide] | 0.01 to 0.49 |
| Nc1ccc(/C=C/C(=O)NCC[C@@H]2[C@H]3CN(c4cccc(F)c4)C[C@@H]23)cn1 [Example 201, (E)-3-(6-aminopyridin-3-yl)-N-(2-((1R,5S,6s)-3-(3-fluorophenyl)-3-azabicyclo[3.1.0]hexan-6-yl)ethyl)acrylamide] | < 0.01 |
| Nc1ccc(/C=C/C(=O)NCC[C@@H]2[C@H]3CN(c4cccc(C(F)(F)F)c4)C[C@@H]23)cn1 [Example 202, (E)-3-(6-aminopyridin-3-yl)-N-(2-((1R,5S,6s)-3-(3-(trifluoromethyl)phenyl)-3-azabicyclo[3.1.0]hexan-6-yl)ethyl)acrylamide] | 0.01 to 0.49 |
| O=C(NCC[C@@H]1[C@H]2CN(c3nc(Cl)ncc3F)C[C@@H]12)c1ccc2nccn2c1 [Example 203, N-(2-((1R,5S,6s)-3-(2-chloro-5-fluoropyrimidin-4-yl)-3-azabicyclo[3.1.0]hexan-6-yl)ethyl)imidazo[1,2-a]pyridine-6-carboxamide] | 0.01 to 0.49 |
| Nc1ccc(/C=C/C(=O)NCC[C@@H]2[C@H]3CN(c4nc(Cl)ncc4F)C[C@@H]23)cn1 [Example 206, (E)-3-(6-aminopyridin-3-yl)-N-(2-((1R,5S,6s)-3-(2-chloro-5-fluoropyrimidin-4-yl)-3-azabicyclo[3.1.0]hexan-6-yl)ethyl)acrylamide] | 0.01 to 0.49 |
| O=C(CCc1cccnc1)NCC[C@@H]1[C@H]2CN(c3nc(Cl)ncc3F)C[C@@H]12 [Example 207, N-(2-((1R,5S,6s)-3-(2-chloro-5-fluoropyrimidin-4-yl)-3-azabicyclo[3.1.0]hexan-6-yl)ethyl)-3-(pyridin-3-yl)propanamide] | < 0.01 |
| O=C(/C=C/c1ccccn1)NCC[C@@H]1[C@H]2CN(c3nc(Cl)ncc3F)C[C@@H]12 [Example 209, (E)-N-(2-((1R,5S,6s)-3-(2-chloro-5-fluoropyrimidin-4-yl)-3-azabicyclo[3.1.0]hexan-6-yl)ethyl)-3-(pyridin-2-yl)acrylamide] | 0.01 to 0.49 |
| O=C(/C=C/c1ccccc1)NCC[C@@H]1[C@H]2CN(c3nc(Cl)ncc3F)C[C@@H]12 [Example 210, N-(2-((1R,5S,6s)-3-(2-chloro-5-fluoropyrimidin-4-yl)-3-azabicyclo[3.1.0]hexan-6-yl)ethyl)cinnamamide] | 0.01 to 0.49 |
| O=C(/C=C/c1ccc(O)nc1)NCC[C@@H]1[C@H]2CN(c3nc(Cl)ncc3F)C[C@@H]12 [Example 211, (E)-N-(2-((1R,5S,6s)-3-(2-chloro-5-fluoropyrimidin-4-yl)-3-azabicyclo[3.1.0]hexan-6-yl)ethyl)-3-(6-hydroxypyridin-3-yl)acrylamide] | 0.01 to 0.49 |

Further lines, results first:

| IC50 [µM] | SMILES |
| --- | --- |
| < 0.01 | O=C(NCC[C@@H]1[C@H]2CN(c3ccccc3)C[C@@H]12)c1cc2ccncc2o1 [Example 193, N-(2-((1R,5S,6s)-3-phenyl-3-azabicyclo[3.1.0]hexan-6-yl)ethyl)furo[2,3-c]pyridine-2-carboxamide] |
| 0.01 to 0.49 | O=C(NCC[C@@H]1[C@H]2CN(c3ncccn3)C[C@@H]12)c1cc2cnccc2[nH]1 [Example 194, N-(2-((1R,5S,6s)-3-(pyrimidin-2-yl)-3-azabicyclo[3.1.0]hexan-6-yl)ethyl)-1H-pyrrolo[3,2-c]pyridine-2-carboxamide] |
| 0.01 to 0.49 | O=C(NCC[C@@H]1[C@H]2CN(c3ccc(F)cc3)C[C@@H]12)c1cc2ccncc2o1 [Example 196, N-(2-((1R,5S,6s)-3-(4-fluorophenyl)-3-azabicyclo[3.1.0]hexan-6-yl)ethyl)furo[2,3-c]pyridine-2-carboxamide] |
| 0.01 to 0.49 | O=C(NCC[C@@H]1[C@H]2CN(c3cccc(F)c3)C[C@@H]12)c1cc2ccncc2o1 [Example 197, N-(2-((1R,5S,6s)-3-(3-fluorophenyl)-3-azabicyclo[3.1.0]hexan-6-yl)ethyl)furo[2,3-c]pyridine-2-carboxamide] |
| 0.01 to 0.49 | O=C(NCC[C@@H]1[C@H]2CN(c3ccccc3)C[C@@H]12)c1cc2cnccc2[nH]1 [Example 198, N-(2-((1R,5S,6s)-3-phenyl-3-azabicyclo[3.1.0]hexan-6-yl)ethyl)-1H-pyrrolo[3,2-c]pyridine-2-carboxamide] |
| 0.01 to 0.49 | O=C(NCC[C@@H]1[C@H]2CN(c3ncccn3)C[C@@H]12)c1cnc2nccn2c1 [Example 199, N-(2-((1R,5S,6s)-3-(pyrimidin-2-yl)-3-azabicyclo[3.1.0]hexan-6-yl)ethyl)imidazo[1,2-a]pyrimidine-6-carboxamide] |
| 0.01 to 0.49 | O=C(NCC[C@@H]1[C@H]2CN(c3ncccn3)C[C@@H]12)c1cc2ccncc2s1 [Example 200, N-(2-((1R,5S,6s)-3-(pyrimidin-2-yl)-3-azabicyclo[3.1.0]hexan-6-yl)ethyl)thieno[2,3-c]pyridine-2-carboxamide] |
| 0.01 to 0.49 | O=C(NCC[C@@H]1[C@H]2CN(c3nc(Cl)ncc3F)C[C@@H]12)c1cc2cnccc2[nH]1 [Example 204, N-(2-((1R,5S,6s)-3-(2-chloro-5-fluoropyrimidin-4-yl)-3-azabicyclo[3.1.0]hexan-6-yl)ethyl)-1H-pyrrolo[3,2-c]pyridine-2-carboxamide] |
| < 0.01 | O=C(NCC[C@@H]1[C@H]2CN(c3nc(Cl)ncc3F)C[C@@H]12)c1cc(-c2cccnc2)on1 [Example 208, N-(2-((1R,5S,6s)-3-(2-chloro-5-fluoropyrimidin-4-yl)-3-azabicyclo[3.1.0]hexan-6-yl)ethyl)-5-(pyridin-3-yl)isoxazole-3-carboxamide] |
